Data set [1] has as its target Phosphatidylinositol 4-phosphate 3-kinase C2 domain-containing subunit alpha (Homo sapiens) (UniProt O00443). The data set is described as follows: Inhibition of PIK3C2alpha at 1 uM.
Data set [2] concerns Mus musculus. The data set is described as follows: Inhibition of PI3K/Akt/mTOR pathway signaling in PI3Kalpha mutant expressing human MCF7.1 cells xenografted nu/nu mouse assessed as inhibition of Akt Ser473 phosphorylation at 6.25 mg/kg, po qd for 21 days measured 4 hrs after last administered dose on day 21 by electrochemiluminescence assay. Type of data set: functional.

A short description of data set [3]: Antitumor activity against human MCF7.1 cells expressing PI3Kalpha mutant xenografted in nu/nu mouse assessed as inhibition of tumor growth at 6.25 mg/kg, po qd for 21 days. Particulars: MCF7.1, 504 h, read-out: TGI. Type of data set: functional. A general note: In xenograft studies the graft and the host belong to different species.
The test system of data set [4] is Mus musculus. Kind of data set: Toxicity in human MCF7.1 cells expressing PI3Kalpha mutant xenografted nu/nu mouse assessed as body weight loss at 6.25 mg/kg, po qd for 21 days. Set-up: dose 6.25 mg/kg, route oral. The settings on record: in vivo, 504 h. Type of data set: organism-based.
For data set [5], the system named is Mus musculus. The data set is described as follows: Toxicity in human MCF7.1 cells expressing PI3Kalpha mutant xenografted nu/nu mouse assessed as body weight loss at 25 mg/kg, po qd for 21 days. Type of data set: organism-based. Set-up: dose 25 mg/kg, route oral. The settings on record: in vivo, 504 h.
For data set [6], the target named is Tyrosine-protein kinase SYK (Homo sapiens, UniProt P43405). The data set is described as follows: Inhibition of SYK.
Data set [7] can be described thus: Protein binding in mouse plasma. Type of data set: ADME, cell-free. The settings on record: read-out: PPB (converted).

Activity calls are given as the source filed them. The rule behind the calls is not given here.

Sequence of Phosphatidylinositol 4-phosphate 3-kinase C2 domain-containing subunit alpha (Homo sapiens) (O00443 whole entry, the tested form may be a part): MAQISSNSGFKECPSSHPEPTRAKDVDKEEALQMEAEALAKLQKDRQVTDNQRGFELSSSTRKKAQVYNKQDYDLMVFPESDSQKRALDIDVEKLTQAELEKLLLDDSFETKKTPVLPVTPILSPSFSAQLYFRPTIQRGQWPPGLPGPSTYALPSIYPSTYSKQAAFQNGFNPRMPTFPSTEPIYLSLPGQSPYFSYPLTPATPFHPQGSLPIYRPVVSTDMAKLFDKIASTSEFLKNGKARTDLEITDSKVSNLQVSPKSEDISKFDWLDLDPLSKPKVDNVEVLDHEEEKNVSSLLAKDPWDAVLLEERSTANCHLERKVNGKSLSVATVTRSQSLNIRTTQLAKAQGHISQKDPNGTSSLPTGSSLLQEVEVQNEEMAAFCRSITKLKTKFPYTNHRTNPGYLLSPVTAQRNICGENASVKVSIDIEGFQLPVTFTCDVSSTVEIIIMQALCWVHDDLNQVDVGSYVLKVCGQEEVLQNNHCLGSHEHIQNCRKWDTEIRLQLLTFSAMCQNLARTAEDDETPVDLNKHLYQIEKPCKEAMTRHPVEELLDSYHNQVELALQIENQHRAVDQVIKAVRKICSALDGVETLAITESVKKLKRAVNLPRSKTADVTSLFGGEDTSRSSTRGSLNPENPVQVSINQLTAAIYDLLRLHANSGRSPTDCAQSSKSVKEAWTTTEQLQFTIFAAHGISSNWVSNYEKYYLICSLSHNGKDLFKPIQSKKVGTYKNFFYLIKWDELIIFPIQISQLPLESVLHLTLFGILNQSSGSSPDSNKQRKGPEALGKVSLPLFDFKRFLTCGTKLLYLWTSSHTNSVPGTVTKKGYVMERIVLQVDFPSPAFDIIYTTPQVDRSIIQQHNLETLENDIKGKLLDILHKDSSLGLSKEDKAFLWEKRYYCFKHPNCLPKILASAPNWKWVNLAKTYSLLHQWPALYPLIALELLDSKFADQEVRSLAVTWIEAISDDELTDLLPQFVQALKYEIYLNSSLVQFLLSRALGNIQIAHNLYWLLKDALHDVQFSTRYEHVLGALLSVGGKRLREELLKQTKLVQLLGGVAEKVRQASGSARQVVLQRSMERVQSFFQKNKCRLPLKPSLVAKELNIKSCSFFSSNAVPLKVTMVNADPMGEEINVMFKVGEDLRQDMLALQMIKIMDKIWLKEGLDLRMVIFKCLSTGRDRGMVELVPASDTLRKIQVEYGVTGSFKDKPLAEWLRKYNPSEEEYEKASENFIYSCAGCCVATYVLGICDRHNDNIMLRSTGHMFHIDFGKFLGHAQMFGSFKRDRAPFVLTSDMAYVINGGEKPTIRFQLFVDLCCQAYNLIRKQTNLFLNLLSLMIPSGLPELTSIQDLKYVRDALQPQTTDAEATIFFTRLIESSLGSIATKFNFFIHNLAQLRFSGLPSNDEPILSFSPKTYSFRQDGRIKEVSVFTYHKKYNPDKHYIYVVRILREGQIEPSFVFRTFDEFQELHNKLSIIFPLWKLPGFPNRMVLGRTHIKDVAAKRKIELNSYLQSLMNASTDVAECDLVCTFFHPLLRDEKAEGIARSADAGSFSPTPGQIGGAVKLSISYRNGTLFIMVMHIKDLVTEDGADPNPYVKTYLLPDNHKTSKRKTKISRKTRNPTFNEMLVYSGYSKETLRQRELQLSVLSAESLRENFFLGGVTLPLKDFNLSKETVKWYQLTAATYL

One may read the IC50 as the concentration that gives 50% inhibition. For the compound `Cc1nc(N)ncc1-c1nc(N2CCOCC2)c2sc(C(C)(C)O)cc2n1`, the inhibition entry in data set [1] was “inactive”. Further, the inhibition in vivo at 6.25 mg/kg amounted to 43% in the data set on Mus musculus [2] and 28% in data set [3]. Besides, the Activity result in the data set on Mus musculus [4] and in the data set with Mus musculus [5] was “Non-toxic” each time. The IC50 in data set [6] is over 1000 nM. In addition, the fraction unbound in data set [7] was 0.27.
